In patent publication US20160184274A1, “Methods for inhibiting mesenchymal phenotype after epithelial-to-mesenchymal transition” (Fibrostatin, S.L., priority 2014, published 2016):
Entries after “also recorded” stand apart in the source; their conditions may differ.

Assays:
[1] = molecular target: T1, multimeric extracellular GPBP (Homo sapiens, UniProt Q9Y5P4); assay: In vitro phosphorylation assay with multimeric extracellular GPBP; assay type: biochemical; conditions: T12 50 μM; autophosphorylation, γ[32P]ATP; FIG. 2
T1 construct: made in house; host or cells: Sf9 insect cells (baculovirus), purified from culture medium
T1 sequence (Q9Y5P4 1-624): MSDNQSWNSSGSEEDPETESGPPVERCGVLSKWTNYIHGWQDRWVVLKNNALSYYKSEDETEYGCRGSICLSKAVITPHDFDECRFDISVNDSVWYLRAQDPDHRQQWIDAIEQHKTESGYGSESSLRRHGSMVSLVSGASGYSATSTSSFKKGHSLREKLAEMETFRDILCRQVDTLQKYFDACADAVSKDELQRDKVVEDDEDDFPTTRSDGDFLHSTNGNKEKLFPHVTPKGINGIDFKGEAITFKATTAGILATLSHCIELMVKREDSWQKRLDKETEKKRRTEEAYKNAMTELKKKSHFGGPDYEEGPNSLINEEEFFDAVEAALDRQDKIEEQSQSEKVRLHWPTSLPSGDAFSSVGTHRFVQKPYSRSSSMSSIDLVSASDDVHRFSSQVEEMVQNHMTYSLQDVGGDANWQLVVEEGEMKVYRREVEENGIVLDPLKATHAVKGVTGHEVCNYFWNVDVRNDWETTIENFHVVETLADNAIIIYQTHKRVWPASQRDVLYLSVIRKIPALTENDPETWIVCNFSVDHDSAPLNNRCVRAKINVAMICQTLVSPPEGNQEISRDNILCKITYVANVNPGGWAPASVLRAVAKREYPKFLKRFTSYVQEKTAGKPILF
Protocol: FIG. 2. […] Multimeric extracellular and trimeric intracellular GPBP were purified by affinity chromatography and subsequent gel filtration chromatography, and used for in vitro phosphorylation assays in absence (−) or presence (+) of T12 (50 μM). Reactions were subjected to SDS-PAGE, Western blot onto PVDF membrane and autoradiography, and further protein detected with anti-FLAG primary antibodies. Autoradiography and anti-FLAG® bands were quantified with WCIF IMAGEJ® software, and the normalized kinase activity estimated. Shown are normalized kinase activities. […] Samples were analyzed in triplicate and the data represents the Mean (±SEM) of three independent assays.
FLAG®-tagged GPBP was expressed using Bac-to-Bac® Baculovirus Expression System. […] Finally, purified protein was quantified with Bio-Rad Protein Assay and stored at −20° C. […]
Typically, about 270 ng of purified FLAG®-GPBP protein, either extracellular multimer or intracellular trimer, were incubated in presence or absence of T12 […] in a kinase assay buffer containing 25 mM disodium β-glycerophosphate, 8 mM MgCl2, 0.5 mM EDTA, 0.5 mM EGTA, 1 mM DTT, 5 mM MnCl2 during 10 min at 37° C. […] Then reactions were stopped with SDS-PAGE loading buffer and heat (95° C., 3 min) and analyzed by SDS-PAGE, electro-transference to PVDF membrane (Merck Millipore) and autoradiography. […]

[2] = system: A549 tumors with epithelial phenotype; conditions: T12 20 mg/kg/day in drinking water, alone or with doxorubicin 4 mg/kg/week i.p.; previously reported, WO/2014/006020; cited from earlier work

normalized kinase activity of GPBP [1]: targeted extracellular GPBP multimer
SMILES: COc1ccc(-c2ccc(-c3cccc(C)c3)c(C)c2)c(CCC(=O)O)c1 [T12, 3-[4″-methoxy-3,2′-dimethyl-(1,1′;4′,1″)terphenyl-2″-yl] propionic acid]
tumor growth (relative tumor volume) [2]: required the synergistic action of doxorubicin to efficiently inhibit tumor growth; also recorded: synergistic with doxorubicin
